Measured values: US10159670B2, “Methods of diagnosing and treating motor neuron diseases and other cellular stress-related diseases” (priority 2012, dated 2018)

Columns and labels:
NSC-34 cells = experiment: Stress-induced change of pre-miRNA processing in NSC-34 cells (qPCR); type: cell-based; conditions: 1 hr, 0.5 mM
Procedure: (FIG. 7A) miRNA expression level analysis in the motor neuron cell line NSC-34, treated with 6.25 nM Thapsigargin for 24 hrs, relative to cells treated with carrier alone (DMSO). Shown are average and s.d. of qPCR analyses of 3 independent experiments. Pre-miRNAs (light grey, normalized to Gapdh) and miRNAs (dark grey, normalized to Snord68). (FIG. 7B) mRNA levels encoding for proteins involved in the canonical stress response, normalized to the expression of beta-actin. (FIG. 7C) miRNA expression level analysis in mouse embryonic motor neurons, treated with 5 nM Thapsigargin for 72 hrs, relative to cells treated with carrier alone (DMSO). Shown are average and s.d. of qPCR analyses of three independent experiments. Pre-miRNAs (light grey, normalized to Gapdh and beta actin) and miRNAs (dark grey, normalized to Snord70). (FIG. 7D) mRNA markers of the canonical stress response, normalized to the expression of beta-actin. miRNA expression level analysis in NSC-34 cells, treated with Paraquat (PQ) (1 mM, 12 hrs, FIG. 7E) and sodium arsenite (0.5 mM, 60 min, FIG. 7F). pre-miRNA normalized to beta-actin mRNA (FIGS. 7E-F) and miRNAs to 5S (FIG. 7E) or to U6 and 5S (FIG. 7F). (FIGS. 7G-I) miRNA expression level analysis in mouse embryonic Wild-type fibroblasts (light grey) or phospho-mutant eIF2a S51A cells (black) treated with Thapsigargin (5 nM, 72 hrs) relative to carrier alone. Pre-miRNA (FIG. 7G) and mature miRNA (FIG. 7H) levels normalized to Gapdh and Snord68, respectively. (FIG. 7I) ATF4, which is induced by phosphorylation of eIF2a, was not induced in phospho-mutant eIF2a S51A cells. Significance of p-values from ANOVA tests is indicated by *p<0.05; **p<0.01. (FIGS. 7J-K) Western-Blot analysis of lysates from untreated NSC-34 cells (control) or cells treated with sodium arsenite (0.5 mM, 60 min). Phospho-specific immunodetection of eIF2a S51 phosphorylation (peIF2a) and total eIF2a levels (FIG. 7J), Dicer and Ago2 levels (FIG. 7K). (FIG. 7L) miRNA expression level analysis in mouse embryonic fibroblasts treated with Puromycin (1 μg/ml, 24 hrs), relative to cells treated with carrier alone (water). Pre-miRNAs (light grey, normalized to Gapdh) and miRNAs (dark grey, normalized to Snord68).
RNA was extracted using Tri reagent (Molecular Research Center Inc.) or Qiazol with consecutive use of the miRNeasy Mini Kit (Qiagen). Pre-miRNA and miRNA reverse transcription was performed using miScript Kits No. I & II (Qiagen). Quantitative analysis of miRNA and pre-miRNA expression performed in more than 3 independent biological repeats and additionally in technical duplicates with StepOnePlus quantitative Real-Time PCR System and 2-sided ANOVA-test performed with DataAssist Software (Life technologies Inc.). Next-generation sequencing of mouse precursor miRNAs and mature miRNAs was performed on two independent experimental repeats, as described in Newman et al. [Newman et al. (2011) RNA 17(10): 1795-1803]. miRNAs were normalized to spiked-in controls and pre-miRNAs were normalized to Snord72 and Snord95.
Stress and cytoplasmic stress granules (SGs) emerge as major pathogenic mechanisms of ALS [Kim et al. (2014) Nat Genet 46(2): 152-160]. Stress pathways are thought to control miRNA activity [Etude and Hornstein, EMBO J. (2014) July 1; 33(13):1428-37], but the idea that cellular stress might broadly regulate miRNA biogenesis was not yet tested. This hypothesis was tested herein by measurement of the relative expression levels of mature miRNAs and their precursors, pre-miRNAs, which provides a proxy for the efficacy of Dicer complex activity. […] Two other chemicals were tested that drive oxidative stress, namely Paraquat (PQ, 12 hrs, 1 mM) and sodium arsenite (1 hr, 0.5 mM). […] Therefore, several different cellular stress pathways negatively regulate miRNA biogenesis.

eIF2a = experiment: Western blot of eIF2a S51 phosphorylation in NSC-34 cells; type: cell-based; conditions: 0.5 mM; 1 hr
Procedure: (FIG. 7A) miRNA expression level analysis in the motor neuron cell line NSC-34, treated with 6.25 nM Thapsigargin for 24 hrs, relative to cells treated with carrier alone (DMSO). Shown are average and s.d. of qPCR analyses of 3 independent experiments. Pre-miRNAs (light grey, normalized to Gapdh) and miRNAs (dark grey, normalized to Snord68). (FIG. 7B) mRNA levels encoding for proteins involved in the canonical stress response, normalized to the expression of beta-actin. (FIG. 7C) miRNA expression level analysis in mouse embryonic motor neurons, treated with 5 nM Thapsigargin for 72 hrs, relative to cells treated with carrier alone (DMSO). Shown are average and s.d. of qPCR analyses of three independent experiments. Pre-miRNAs (light grey, normalized to Gapdh and beta actin) and miRNAs (dark grey, normalized to Snord70). (FIG. 7D) mRNA markers of the canonical stress response, normalized to the expression of beta-actin. miRNA expression level analysis in NSC-34 cells, treated with Paraquat (PQ) (1 mM, 12 hrs, FIG. 7E) and sodium arsenite (0.5 mM, 60 min, FIG. 7F). pre-miRNA normalized to beta-actin mRNA (FIGS. 7E-F) and miRNAs to 5S (FIG. 7E) or to U6 and 5S (FIG. 7F). (FIGS. 7G-I) miRNA expression level analysis in mouse embryonic Wild-type fibroblasts (light grey) or phospho-mutant eIF2a S51A cells (black) treated with Thapsigargin (5 nM, 72 hrs) relative to carrier alone. […]

## O=[As]O [sodium arsenite]
NSC-34 cells
  mature miRNAs: down-regulation of mature miRNAs
  pre-miRNA levels: up-regulation of pre-miRNA levels
eIF2a
  phosphorylation of eIF2a: sufficient to induce the phosphorylation of eIF2a
